From patent publication US5162499A, “Synthetic peptides for the treatment of AIDS” (Heterocyclic Research, Inc., priority 1991, dated 1992)

Assays:
Human monocytes = assay: Chemotaxis assay (monocyte migration in agarose plates); type: cell-based; parameters: key: (cells migrating to attractant − cells migrating to buffer)/10
From the text: Briefly, monocyte migration is directly observed in a chemotaxis chamber.
A comparative study comparing the chemotactic activity of the peptides of the invention with the chemotactic activity of peptide T (C. B. Pert et al., Proc. Natl. Acad. Sci., Vol. 83, pp. 9254-9258, 1986) was undertaken. […] Human monocytes were obtained by the known technique of layering heparinized blood on FICOLL-HYPAQUE differential dentrifugation medium in a centrifuge tube and spinning to separate the red blood cells from plasma and the monolayered monocytes. The monocytes were pipetted off and then washed with physiological saline.
The agarose plates were also prepared in accordance with conventional methods. Agarose type II (0.4 g), available from Sigma Chemical, and LITEX gelatin (0.3 g) were combined and heated until the gelatin was thoroughly dissolved. RMPI-HANK buffer (4 ml), distilled water (15.2 ml) and saturated NaHCO3 solution (0.8 ml) were then added to the agarose gelatin and mixed to homogeneity. 5 ml aliquots of the resulting solution were poured into plastic petri dishes (FALCON 55 mm) and allowed to gel. After the agarose has sufficiently hardened, wells, 3 mm in diameter were cut in the agarose, such that each dish had six rows of wells radiating from the center of the dish, each row containing three wells spaced apart by a distance of 3 mm. Thus, each plate was used to assay two test samples in triplicate. 8 ul of the test peptide (in 120 mM HEPES buffer) was placed on the outermost well, 8 ul of monocyte cell solution was placed in the center well and 8 ul of RPMI-HANKS buffer was placed in the innermost well. The migration of monocytes was visually observed and the number of migrating cells was determined. A chemotactic index was calculated as the number of cells which migrated toward the attractant, i.e., test peptide or control, less the number of cells that migrated towards the buffer divided by 10. Formyl-Met-Leu-Phe (FMLP) and (D-Ala)Peptide-T were used as positive control and HEPES buffer and Leu-Gly-Gly were used as negative controls.

[1] = test system: binding of HIV to T4 cells; settings: reported by Pert et al., PNAS 1986; cited from earlier work
[2] = attractant concentration 10^-9 M
[3] = attractant concentration 10^-10 M
[4] = attractant concentration 10^-11 M

Row | Substance | Chemotactic Index (Human monocytes; [2]) | Chemotactic Index (Human monocytes; [3]) | Chemotactic Index (Human monocytes; [4]) | Blocking of the binding of HIV to T4 cells (in words) [1]
1 | H-SER-SER-ASN-TYR-MET (SSNYM; printed: SER-SER-ASN-TYR-MET) [Example 8, linear pentapeptide] | 5.0 | 4.8 | 6.0 | –
2 | SER--SER--SER--ASN--TYR--MET (SSSNYM; printed: SER--SER--SER--ASN--TYR--MET) [Example 7, linear hexapeptide] | 4.6 | 5.1 | 5.3 | –
3 | ALA--SER--SER--SER--ASN--TYR--MET (ASSSNYM; printed: ALA--SER--SER--SER--ASN--TYR--MET) [Example 6, linear heptapeptide] | 4.9 | 4.7 | 5.1 | –
4 | Ala-Ser-Thr-Thr-Thr-Asn-Tyr-Thr [peptide T] | – | – | – | block the binding of HIV to T4 cells
